This note sets out measurements from US9505728B2, “Triazolone compounds and uses thereof” (INCEPTION 2, INC., priority 2012, dated 2016).

This experiment deals with T1, Human PPARα (Homo sapiens, UniProt Q07869).
T1 construct: host or cells: proprietary non-human mammalian cells
T1 sequence (Q07869 1-468): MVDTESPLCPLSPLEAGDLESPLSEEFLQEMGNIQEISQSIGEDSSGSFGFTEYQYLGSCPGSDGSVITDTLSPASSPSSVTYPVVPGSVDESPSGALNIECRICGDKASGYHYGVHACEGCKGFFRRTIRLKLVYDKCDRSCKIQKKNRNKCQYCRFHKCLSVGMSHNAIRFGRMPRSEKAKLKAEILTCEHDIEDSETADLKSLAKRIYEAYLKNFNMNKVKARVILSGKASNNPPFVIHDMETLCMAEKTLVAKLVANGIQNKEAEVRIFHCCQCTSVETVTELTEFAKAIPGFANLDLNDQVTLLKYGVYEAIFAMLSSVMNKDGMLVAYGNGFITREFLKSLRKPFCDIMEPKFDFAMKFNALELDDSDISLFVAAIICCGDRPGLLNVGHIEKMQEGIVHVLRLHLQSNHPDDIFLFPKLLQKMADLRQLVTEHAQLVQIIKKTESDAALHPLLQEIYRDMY
The experiment can be described thus: Human PPARα Reporter Assay (luciferase). Format: cell-based. Conditions: human PPARα reporter cells, overnight incubation, antagonism; read-out: Luciferase IC50. The procedure, abridged: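 Non-human mammalian cells constitutively expressing human PPARα with a PPARα-responsive luciferase reporter were dosed with compounds right after plating. After overnight incubation, media removed and detection reagent added; luminescence taken as proportional to PPARα activation, agonist or antagonist mode.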
On the technique in general: In a reporter assay the amount or activity of a reporter protein is the signal.
`CCn1c(CCCc2ccc(-c3ccc(OC)c(CC(=O)O)c3)c(C(F)(F)F)c2)nn(Cc2ccc(C(C)(C)C)cc2)c1=O` [Example 150, 2-(4′-(3-(1-(4-(tert-Butyl)benzyl)-4-ethyl-5-oxo-4,5-dihydro-1H-1,2,4-triazol-3-yl)propyl)-4-methoxy-2′-(trifluoromethyl)-[1,1′-biphenyl]-3-yl) acetic acid]: the IC50 (usually the midpoint of a concentration-inhibition curve) came to 126 nM. For `CCn1c(CCCc2ccc(-c3ccc(OC)c(NS(=O)(=O)c4ccccc4)c3)cc2)nn(Cc2ccc(C(C)(C)C)cc2)c1=O` [Example 151, 1-{[4-(tert-Butyl)phenyl]methyl}-4-ethyl-3-[3-(4-{4-methoxy-3-[(phenylsulfonyl)amino]phenyl}phenyl)propyl]-1,2,4-triazolin-5-one] the value was 61 nM.

For the compound `CCn1c(CCCc2ccc(-c3ccc(C)c(NS(=O)(=O)c4ccccc4)c3)cc2)nn(Cc2ccc(C(C)(C)C)cc2)c1=O` [Example 152, 1-{[4-(tert-Butyl)phenyl]methyl}-4-ethyl-3-[3-(4-{4-methyl-3-[(phenylsulfonyl)amino]phenyl}phenyl)propyl]-1,2,4-triazolin-5-one], the IC50 stood at 160 nM. For `CCn1c(CCCc2ccc(-c3cccc(NC(=O)Nc4ccccc4)n3)cc2)nn(Cc2ccc(C(C)(C)C)cc2)c1=O` [Example 153, 1-(6-(4-(3-(1-(4-(tert-Butyl)benzyl)-4-ethyl-5-oxo-4,5-dihydro-1H-1,2,4-triazol-3-yl)propyl)phenyl)pyridin-2-yl)-3-phenylurea] the value was 947 nM; for `CCn1c(CCCc2ccc(-c3cccc(NC(=O)NS(=O)(=O)c4ccccc4)n3)cc2)nn(Cc2ccc(C(C)(C)C)cc2)c1=O` [Example 154, N-((6-(4-(3-(1-(4-(tert-Butyl)benzyl)-4-ethyl-5-oxo-4,5-dihydro-1H-1,2,4-triazol-3-yl)propyl)phenyl)pyridin-2-yl)carbamoyl)benzenesulfonamide], 241 nM. To `CCn1c(CCCc2ccc(-c3cccc(NC(=O)NCc4ccccc4)n3)cc2)nn(Cc2ccc(C(C)(C)C)cc2)c1=O` [Example 155, 1-Benzyl-3-(6-(4-(3-(1-(4-(tert-butyl)benzyl)-4-ethyl-5-oxo-4,5-dihydro-1H-1,2,4-triazol-3-yl)propyl)phenyl)pyridin-2yl)urea] belongs 362 nM; to `CCn1c(CCCc2ccc(-c3ncc(N)cc3C(F)(F)F)cc2)nn(Cc2ccc(C(C)(C)C)cc2)c1=O` [Example 156, 3-(3-{4-[5-Amino-3-(trifluoromethyl)(2-pyridyl)]phenyl}propyl)-1-{[4-(tert-butyl)phenyl]methyl}-4-ethyl-1,2,4-triazolin-5-one], 684 nM. For `CCn1c(CCCc2ccc(-c3ccc(OC)c(CC(=O)O)c3)c(C)c2)nn(Cc2ccc(C(C)(C)C)cc2)c1=O` [Example 157, 2-(4′-(3-(1-(4-(tert-Butyl)benzyl)-4-ethyl-5-oxo-4,5-dihydro-1H-1,2,4-triazol-3-yl)propyl)-4-methoxy-2′-methyl-[1,1′-biphenyl]-3-yl)acetic acid] the value was 94 nM.

For `CCn1c(CCCc2ccc(-c3ccc(OC)c(CC(=O)O)c3)cc2OC)nn(Cc2ccc(C(C)(C)C)cc2)c1=O` [Example 158, 2-(4′-(3-(1-(4-(tert-Butyl)benzyl)-4-ethyl-5-oxo-4,5-dihydro-1H-1,2,4-triazol-3-yl)propyl)-3′,4-dimethoxy-[1,1′-biphenyl]-3-yl)acetic acid], the 50% inhibitory concentration (IC50) came to 184 nM. To `CCn1c(CCCc2ccc(-c3ccc(OC)c(CC(=O)O)c3)c(OC)c2)nn(Cc2ccc(C(C)(C)C)cc2)c1=O` [Example 159, 2-(4′-(3-(1-(4-(tert-Butyl)benzyl)-4-ethyl-5-oxo-4,5-dihydro-1H-1,2,4-triazol-3-yl)propyl)-2′,4-dimethoxy-[1,1′-biphenyl]-3-yl)acetic acid] belongs 410 nM; to `CCn1c(CCCc2ccc(-c3ccc(NC(=O)NS(=O)(=O)c4ccccc4)cn3)cc2)nn(Cc2ccc(C(C)(C)C)cc2)c1=O` [Example 160, N-((6-(4-(3-(1-(4-(tert-Butyl)benzyl)-4-ethyl-5-oxo-4,5-dihydro-1H-1,2,4-triazol-3-yl)propyl)phenyl)pyridin-3-yl)carbamoyl)benzenesulfonamide], 429 nM; to `CCn1c(CCCc2ccc(-c3ccc(C(F)(F)F)c(N)n3)cc2)nn(Cc2ccc(C(C)(C)C)cc2)c1=O` [Example 161, 3-(3-{4-[6-Amino-5-(trifluoromethyl)(2-pyridyl)]phenyl}propyl)-1-{[4-(tert-butyl)phenyl]methyl}-4-ethyl-1,2,4-triazolin-5-one], 638 nM. Regarding `CCn1c(CCCc2ccc(-c3cnc(OC)c(C(=O)O)n3)cc2)nn(Cc2ccc(C(C)(C)C)cc2)c1=O` [Example 162, 6-(4-(3-(1-(4-(tert-Butyl)benzyl)-4-ethyl-5-oxo-4,5-dihydro-1H-1,2,4-triazol-3-yl)propyl)phenyl)-3-methoxypyrazine-2-carboxylic acid], the IC50 was found to be 630 nM. For the compound `CCn1c(CCC(F)(F)c2ccc(-c3ccc(OC)c(CC(=O)O)c3)cc2)nn(Cc2ccc(C(C)(C)C)cc2)c1=O` [Example 163, 2-(4′-(3-(1-(4-(tert-Butyl)benzyl)-4-ethyl-5-oxo-4,5-dihydro-1H-1,2,4-triazol-3-yl)-1,1-difluoropropyl)-4-methoxy-[1,1′-biphenyl]-3-yl)acetic acid], the IC50 turned out to be 15 nM. `CCn1c(CCCc2ccc(-c3ccc(C(F)(F)F)c(NS(=O)(=O)c4ccccc4)n3)cc2)nn(Cc2ccc(C(C)(C)C)cc2)c1=O` [Example 164, 1-{[4-(tert-Butyl)phenyl]methyl}-4-ethyl-3-[3-(4-{6-[(phenylsulfonyl)amino]-5-(trifluoromethyl)(2-pyridyl)}phenyl)propyl]-1,2,4-triazolin-5-one]: the IC50 worked out at 20 nM. To `CCn1c(CCCc2ccc(-c3ccc(C)c(C(=O)O)n3)cc2)nn(Cc2ccc(C(C)(C)C)cc2)c1=O` [Example 165, 6-(4-(3-(1-(4-(tert-Butyl)benzyl)-4-ethyl-5-oxo-4,5-dihydro-1H-1,2,4-triazol-3-yl)propyl)phenyl)-3-methylpicolinic acid] belongs 202 nM. As to `CCn1c(CCCc2ccc(-c3ccc(C4(F)COC4)nc3)cc2)nn(Cc2ccc(C(C)(C)C)cc2)c1=O` [Example 166, 1-(4-(tert-Butyl)benzyl)-4-ethyl-3-(3-(4-(6-(3-fluorooxetan-3-yl)pyridine-3-yl)phenyl)propyl)-1H-1,2,4-triazol-5(4H)-one], the 50% inhibitory concentration (IC50) was 91 nM. For `CC(C)(C)c1ccc(Cn2nc(CCCc3ccc(-c4ccc(C5(O)COC5)cc4)cc3)[nH]c2=O)cc1` [Example 167, 1-(4-(tert-Butyl)benzyl)-3-(3-(4%(3-hydroxyoxetan-3-yl)-[1,1′-biphenyl]-4-yl)propyl)-1H-1,2,4-triazol-5(4H)-one] the value was 454 nM; for `CCCOc1ccc(-c2ccc(CCCc3nn(Cc4ccc(C(C)(C)C)cc4)c(=O)n3CC)cc2)cc1C(=O)O` [Example 168, 4′-(3-(1-(4-(tert-Butyl)benzyl)-4-ethyl-5-oxo-4,5-dihydro-1H-1,2,4-triazol-3-yl)propyl)-4-propoxy-[1,1′-biphenyl]-3-carboxylic acid], 9 nM; for `CCNC(=O)Nc1ccc(-c2ccc(CCCc3nn(Cc4ccc(C(C)(C)C)cc4)c(=O)n3CC)cc2)nc1` [Example 169, 1-(6-(4-(3-(1-(4-(tert-Butyl)benzyl)-4-ethyl-5-oxo-4,5-dihydro-1H-1,2,4-triazol-3-yl)propyl)phenyl)pyridin-3-yl)-3-ethylurea], 535 nM. To `CCn1c(CCCc2ccc(-c3cnc(C4(F)COC4)nc3)cc2)nn(Cc2ccc(C(C)(C)C)cc2)c1=O` [Example 170, 1-(4-(tert-Butyl)benzyl)-4-ethyl-3-(3-(4-(2-(3-fluorooxetan-3-yl)pyrimidin-5-yl)phenyl)propyl)-1H-1,2,4-triazol-5(4H)-one] belongs 41 nM; to `CCNC(=O)Nc1cccc(-c2ccc(CCCc3nn(Cc4ccc(C(C)(C)C)cc4)c(=O)n3CC)cc2)n1` [Example 171, 1-(6-(4-(3-(1-(4-(tert-Butyl)benzyl)-4-ethyl-5-oxo-4,5-dihydro-1H-1,2,4-triazol-3-yl)propyl)phenyl)pyridin-2-yl)-3-ethylurea], 816 nM; to `CCn1c(CCCc2ccc(-c3cccc(CN)c3)cc2)nn(Cc2ccc(C(C)(C)C)cc2)c1=O` [Example 172, 3-(3-{4-[3-(Aminomethyl)phenyl]phenyl}propyl)-1-{[4-(tert-butyl)phenyl]methyl}-4-ethyl-1,2,4-triazolin-5-one], 647 nM.

Regarding `CCn1c(CCCc2ccc(-c3cnc(C4(O)COC4)nc3)cc2)nn(Cc2ccc(C(C)(C)C)cc2)c1=O` [Example 173, 1-(4-(tert-Butyl)benzyl)-4-ethyl-3-(3-(4-(2-(3-hydroxyoxetan-3-yl)pyrimidin-5-yl)phenyl)propyl)-1H-1,2,4-triazol-5(4H)-one], the IC50 came to 126 nM. For `CCn1c(CCCc2ccc(-c3ccc(C4(O)COC4)cc3)cc2)nn(Cc2ccc(C(C)(C)C)cc2)c1=O` [Example 174, 1-(4-(tert-Butyl)benzyl)-4-ethyl-3-(3-(4′-(3-hydroxyoxetan-3-yl)-[1,1′-biphenyl]-4-yl)propyl)-1H-1,2,4-triazol-5(4H)-one], the 50% inhibitory concentration (IC50) was found to be 144 nM.
